Source: article PMC9415951 (Viruses, 2022)
Entries after “also recorded” stand apart in the source; their conditions may differ. Counter-ions that a name gives are not always drawn. Like-named read-outs stand apart in the source and are kept apart here.

Assays:
bovine thrombin = bovine thrombin (Bos taurus, UniProt P00735); assay: Thrombin inhibition assay (chromogenic substrate S-2238); assay type: biochemical
VERO cells = assay: Cytotoxicity assay (XTT) on VERO cells; assay type: cell-based, African green monkey; settings: 72 h, 100 µM
[1] = Cytotoxicity assay (XTT) on VERO cells; assay type: cell-based, African green monkey; settings: African green monkey
[2] = biological target: recombinant human factor Xa (Homo sapiens, UniProt P00742); assay: Factor Xa inhibition assay (chromogenic substrate S-2765); assay type: biochemical
Sequence of recombinant human factor Xa (P00742 235-488 limits assumed): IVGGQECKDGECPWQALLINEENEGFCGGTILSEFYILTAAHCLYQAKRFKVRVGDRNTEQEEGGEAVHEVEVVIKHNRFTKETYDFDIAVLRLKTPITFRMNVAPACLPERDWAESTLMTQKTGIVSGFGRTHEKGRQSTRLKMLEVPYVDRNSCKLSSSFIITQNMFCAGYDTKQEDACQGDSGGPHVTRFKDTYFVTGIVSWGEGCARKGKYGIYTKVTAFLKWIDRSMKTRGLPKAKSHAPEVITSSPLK
Sequence of recombinant human factor Xa (P00742 41-179 partner limits assumed): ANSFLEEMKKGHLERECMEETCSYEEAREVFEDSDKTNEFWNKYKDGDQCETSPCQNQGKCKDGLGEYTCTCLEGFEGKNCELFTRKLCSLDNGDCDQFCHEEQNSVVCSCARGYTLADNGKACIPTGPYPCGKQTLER

SARS-CoV-2 [3] = assay: microbe, parasite or virus in culture; assay type: cell-based; settings: for protective effect against SARS-CoV-2 infectivity (in words): preincubation 2 h, crystal violet 72 h after infection; for inhibition at 100 µM: Severe acute respiratory syndrome coronavirus 2, Vero
SARS-CoV-2 [4] = assay type: cell-based; settings: 100 µM, virus coincubated with compound before infecting VERO cells
[5] = Stability in phosphate buffer solution pH 7.4 (RP-HPLC); assay type: physicochemical; settings: for residual, % of the starting concentration: pH 7.4 buffer
[6] = Stability in pooled human serum (RP-HPLC); assay type: in vitro ADME; settings: for residual, % of the starting concentration: human serum
[7] = Cheng-Prousoff from IC50, mean of three measurements, read-out: Enzyme Inhibition, Ki, Thrombin
[8] = Cheng-Prousoff from IC50, mean of three measurements, read-out: Enzyme Inhibition, Ki, Factor Xa
[9] = VERO cells, confluent monolayers (mock-infected), 72 h, XTT, read-out: VERO Cells Toxicity, CC50

Compound	Ki (bovine thrombin; [7])	VERO Cells Toxicity, Cytotoxicity at 100 µM (% of nonviable cells) (VERO cells; African green monkey)	CC50 at 72 h [1]	Ki [2, 8]	protective effect against SARS-CoV-2 infectivity (in words) (SARS-CoV-2 [3]; 100 µM)	effect on SARS-CoV-2 infectivity (in words) (SARS-CoV-2 [4])	residual, % of the starting concentration ([5]; 0 h)	residual, % of the starting concentration ([5]; 1 h)	residual, % of the starting concentration ([5]; 4 h)	residual, % of the starting concentration ([5]; 12 h)	residual, % of the starting concentration ([5]; 24 h)	residual, % of the starting concentration ([6]; 0 h)	residual, % of the starting concentration ([6]; 1 h)	VERO Cells Toxicity, Cytotoxicity at 100 µM (% of nonviable cells) (VERO cells; XTT, mock-infected VERO cells)	CC50 at 72 h [1, 9]	inhibition mechanism, fXa ([2]; time-dependent inhibition)	inhibition mechanism, thrombin (bovine thrombin; time-dependent inhibition)	other results
N=C(N)N1CCC(C(=O)Nc2ccccc2OCc2cc(-c3ccc(Cl)s3)on2)CC1 [Compound 1]	6820 nM	20.3 ± 0.9%	> 200 µM	2 nM	weak (nonsignificant) protective effect	did decrease viral infectivity	–	–	–	–	–	–	–	–	–	–	–	–
CC(C)N1CCC(C(=O)Nc2ccccc2OCc2cc(-c3ccc(Cl)s3)on2)CC1 [Compound 2]	–	7.45 ± 0.24%	> 200 µM	0.3 nM	did not show any ability to reduce the virus infectivity	–	–	–	–	–	–	–	–	–	–	–	–	–
N=C(N)N1CCC(C(=O)Nc2cccc(OCc3cc(-c4ccc(Cl)s4)on3)c2)CC1 [Compound 3]	–	–	–	15 nM	completely inhibited; also recorded: statistically significant protective effects; also recorded: totally block SARS-CoV-2 entry	did decrease viral infectivity; also recorded: best candidate against the viral infection	100%	98.8±0.5%	98.1±1.5%	97.5±0.5%	97.9±1.0%	100%	95.8±1.0%	–	–	–	–	time dependence of inhibition constant (bovine thrombin; preincubation 0, 15, 30 min): did not show any significant time-dependent change in inhibition constant; CC50 at 72 h ([1]; 72 h, XTT, read-out: VERO Cells Toxicity, CC50): 155 ± 16 µM; hydrolytic degradation after 24 h ([5]; PBS pH 7.4, 24 h): less than 10%; residual, % of the starting concentration ([6]; 4 h): 96.6±1.5%; residual, % of the starting concentration ([6]; 12 h): 93.2±2.5%; residual, % of the starting concentration ([6]; 24 h): 96.8±3.0%; hydrolytic degradation after 24 h ([6]; pooled blood human serum, 24 h): less than 10%; Ki ([2]; Ki, factor Xa, time-dependent inhibition, incubation time 0 min): 20 ± 7 nM; Ki ([2]; Ki, factor Xa, time-dependent inhibition, incubation time 15 min): 17 ± 8 nM; inhibition at 100 µM (SARS-CoV-2 [3]; read-out: inhibition of virus infectivity): 100%; inhibitory effects on SARS-CoV-2 infection (SARS-CoV-2 [3]; lower concentrations 3–50 µM, preincubation, VERO cells): ca. 30%
[H]/N=C(/N)c1ccc(NCc2nc3cc(C(=O)N(CCC(=O)O)c4ccccn4)ccc3n2C)cc1 [Dabigatran, dabigatran]	–	–	–	–	did not show any effect; also recorded: did not show any ability to reduce the virus infectivity	–	–	–	–	–	–	–	–	18.3 ± 0.8%	> 200 µM	reversible inhibitors	–	inhibition mechanism, thrombin (bovine thrombin): reversible inhibitors
N=C(N)c1ccc2cc(OC(=O)c3ccc(N=C(N)N)cc3)ccc2c1 [Nafamostat, Nafamostat mesylate]	10 nM	–	–	–	did not achieve statistically significant activity	–	100%	87.6±1.2%	81.6±1.8%	73.8±3.0%	61.4±2.8%	100%	21.2±5.2%	16.0 ± 0.8%	> 200 µM	covalent inhibitor	covalent inhibitor	Ki (bovine thrombin; incubation time 0 min, read-out: Ki, thrombin, time-dependent inhibition): 77 nM; Ki (bovine thrombin; incubation time 15 min, read-out: Ki, thrombin, time-dependent inhibition): 13 nM; Ki (bovine thrombin; incubation time 30 min, read-out: Ki, thrombin, time-dependent inhibition): 5 nM; residual, % of the starting concentration ([5]; 0.5 h): 95.1±0.5%; residual, % of the starting concentration ([5]; 2 h): 84.9±1.0%; residual, % of the starting concentration ([5]; 8 h): 78.4±2.5%; half-life at 100 µM ([5]; phosphate buffer solution (PBS), PBS pH 7.4, 37 °C): ~2700 min; residual, % of the starting concentration ([6]; 0.5 h): 45.9±4.3%; residual, % of the starting concentration ([6]; 2 h): 5.1±3.3%; half-life at 100 µM ([6]; pooled human serum, 37 °C, read-out: half-life in human pooled blood serum): 16 min; Ki ([2]; incubation time 0 min, read-out: Ki, factor Xa, time-dependent inhibition): 363 ± 6 nM; Ki ([2]; incubation time 15 min, read-out: Ki, factor Xa, time-dependent inhibition): 340 ± 10 nM; Ki ([2]; incubation time 30 min, read-out: Ki, factor Xa, time-dependent inhibition): 225 ± 9 nM; protective effect against SARS-CoV-2 infectivity (in words) (SARS-CoV-2 [3]; 100 µM, listed as NAF): weak (nonsignificant) protective effect; cellular monolayer preserved (SARS-CoV-2 [3]; 100 µM, preincubation, crystal violet staining): around 60%; cells with SARS-CoV-2 detected (SARS-CoV-2 [3]; 100 µM, preincubation, immunofluorescence): ~ 25%; activity against SARS-CoV-2 infection over scalar concentrations (in words) (SARS-CoV-2 [3]; 3–100 µM, preincubation): not to have statistically significant activity; inhibition at 100 µM (SARS-CoV-2 [3]; read-out: reduction of viral entry (inhibition)): ~20%; inhibition of SARS-CoV-2 infection (SARS-CoV-2 [3]; whole range of test concentrations 3–100 µM, VERO cells): 15–20%
O=C(NC[C@H]1CN(c2ccc(N3CCOCC3=O)cc2)C(=O)O1)c1ccc(Cl)s1 [Rivaroxaban, rivaroxaban]	–	–	–	–	did not show any effect; also recorded: did not show any ability to reduce the virus infectivity	–	–	–	–	–	–	–	–	29.4 ± 0.8%	> 200 µM	reversible inhibitors	reversible inhibitors	Ki (bovine thrombin): 12000 nM
